According to ChEMBL document CHEMBL1129687, “Antitumor activity of S-(p-bromobenzyl)glutathione diesters in vitro: a structure-activity study” (J Med Chem, 1996):

Test: The growth inhibitory concentration of compound was determined by logistic regression of viable cell number on Human leukemia 60 cells
Type: functional, 60 cell

Compound	GC50
CCCCOC(=O)CNC(=O)C(CSCc1ccc(Br)cc1)NC(=O)CCC(N)C(=O)OCCCC (configuration not stated)	18.5 µM
CCOC(=O)CNC(=O)C(CSCc1ccc(Br)cc1)NC(=O)CCC(N)C(=O)OCC (configuration not stated)	8.3 µM
CCCOC(=O)CNC(=O)C(CSCc1ccc(Br)cc1)NC(=O)CCC(N)C(=O)OCCC (configuration not stated)	7.8 µM
CC(C)OC(=O)CNC(=O)C(CSCc1ccc(Br)cc1)NC(=O)CCC(N)C(=O)OC(C)C (configuration not stated)	19.6 µM
CCCCCOC(=O)CNC(=O)C(CSCc1ccc(Br)cc1)NC(=O)CCC(N)C(=O)OCCCCC (configuration not stated)	22.2 µM
NC(CCC(=O)NC(CSCc1ccc(Br)cc1)C(=O)NCC(=O)OC1CCCCC1)C(=O)OC1CCCCC1 (configuration not stated)	29.2 µM
NC(CCC(=O)NC(CSCc1ccc(Br)cc1)C(=O)NCC(=O)OC1CCCC1)C(=O)OC1CCCC1 (configuration not stated)	4.2 µM
